Laboratory results as given in patent US20120029187A1, “HALOALKYLSULFONANILIDE DERIVATIVE” (Nissan Chemical Industries, Ltd., priority 2009, published 2012).

Key:
Format in all cases: in vivo
velvetleaf [1] = assay: Test Example 3: herbicidal effects in soil treatment; conditions: dose 3.2 g/a
Summary of the method: (§1)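 Seeds were sown in sterilized diluvial soil and covered with about 1.5 cm of soil. Compounds, formulated as emulsifiable concentrates and diluted with water, were sprayed evenly over the soil surface at set doses in g/a. Herbicidal effect was scored on a rating scale three weeks later.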

barnyardgrass [2] = assay: as above; conditions: dose 3.2 g/a
Summary of the method: as §1

redroot pigweed [3] = assay: as above; conditions: dose 3.2 g/a
Summary of the method: as §1

common ragweed [4] = assay: as above; conditions: dose 3.2 g/a
Summary of the method: as §1

Italian ryegrass [5] = assay: as above; conditions: dose 3.2 g/a
Summary of the method: as §1

posumbu knotweed [6] = assay: as above; conditions: dose 3.2 g/a
Summary of the method: as §1

large crabgrass [7] = assay: as above; conditions: dose 3.2 g/a
Summary of the method: as §1

water foxtail [8] = assay: as above; conditions: dose 3.2 g/a
Summary of the method: as §1

common chickweed [9] = assay: as above; conditions: dose 3.2 g/a
Summary of the method: as §1

common lambsquater [10] = assay: as above; conditions: dose 3.2 g/a
Summary of the method: as §1

giant foxtail [11] = assay: as above; conditions: dose 3.2 g/a
Summary of the method: as §1

velvetleaf [12] = assay: Test Example 4: herbicidal effect in foliage treatment; conditions: dose 3.2 g/a, three weeks after application
Summary of the method: (§2)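 Weeds and crops sown in sterilized diluvial soil under ~1.5 cm cover and grown in greenhouse at 25 to 30° C. At 14 days, water-diluted emulsifiable concentrate sprayed onto foliage at set doses (g/a); herbicidal effect scored on a rating scale three weeks after application.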

barnyardgrass [13] = assay: as above; conditions: dose 3.2 g/a, three weeks after application
Summary of the method: as §2

redroot pigweed [14] = assay: as above; conditions: dose 3.2 g/a, three weeks after application
Summary of the method: as §2

common ragweed [15] = assay: as above; conditions: dose 3.2 g/a, three weeks after application
Summary of the method: as §2

Italian ryegrass [16] = assay: as above; conditions: dose 3.2 g/a, three weeks after application
Summary of the method: as §2

beadstraw = assay: as above; conditions: dose 3.2 g/a, three weeks after application
Summary of the method: as §2

posumbu knotweed [17] = assay: as above; conditions: dose 3.2 g/a, three weeks after application
Summary of the method: as §2

large crabgrass [18] = assay: as above; conditions: dose 3.2 g/a, three weeks after application
Summary of the method: as §2

water foxtail [19] = assay: as above; conditions: dose 3.2 g/a, three weeks after application
Summary of the method: as §2

common chickweed [20] = assay: as above; conditions: dose 3.2 g/a, three weeks after application
Summary of the method: as §2

common lambsquater [21] = assay: as above; conditions: dose 3.2 g/a, three weeks after application
Summary of the method: as §2

giant foxtail [22] = assay: as above; conditions: dose 3.2 g/a, three weeks after application
Summary of the method: as §2

barnyardgrass [23] = assay: Test Example 1: herbicidal effects in preemergence treatment under submerged conditions; conditions: dose 2.52 g/a
Summary of the method: (§3)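 Scoring 0 (<5% mortality) to 5 (≥90%) was done three weeks after preemergence application to the water surface of submerged (4 cm) alluvial soil, doses given as g per are. Weeds were seeded and 2.5-leaf rice transplanted on the treatment day; greenhouse at 25–30 °C.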

ducksalad [24] = assay: as above; conditions: dose 2.52 g/a
Summary of the method: as §3

bulrush [25] = assay: as above; conditions: dose 2.52 g/a
Summary of the method: as §3

barnyardgrass [26] = assay: Test Example 2: herbicidal effects during the vegetation period under submerged conditions; conditions: treatment during the vegetation period under submerged conditions; dose 2.52 g/a
Summary of the method: (§4)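 Barnyardgrass, bulrush and ducksalad were co-sown in alluvial soil flooded to 4 cm and grown in a greenhouse at 25 to 30° C. At the 1- or 2-leaf stage, water-diluted emulsifiable concentrates went onto the water surface at set doses (g/a). Herbicidal effect was scored three weeks later on a graded scale.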

ducksalad [27] = assay: as above; conditions: treatment during the vegetation period under submerged conditions; dose 2.52 g/a
Summary of the method: as §4

bulrush [28] = assay: as above; conditions: treatment during the vegetation period under submerged conditions; dose 2.52 g/a
Summary of the method: as §4

transplanted rice = assay: Test Example 1: preemergence treatment under submerged conditions, effect on crop; conditions: dose 2.52 g/a
Summary of the method: as §3

Row | Compound | I: velvetleaf, herbicidal effect (evaluation scale 0-5) (velvetleaf [1]) | A: barnyardgrass, herbicidal effect (evaluation scale 0-5) (barnyardgrass [2]) | K: redroot pigweed, herbicidal effect (evaluation scale 0-5) (redroot pigweed [3]) | J: common ragweed, herbicidal effect (evaluation scale 0-5) (common ragweed [4]) | H: Italian ryegrass, herbicidal effect (evaluation scale 0-5) (Italian ryegrass [5]) | M: posumbu knotweed, herbicidal effect (evaluation scale 0-5) (posumbu knotweed [6]) | D: large crabgrass, herbicidal effect (evaluation scale 0-5) (large crabgrass [7]) | G: water foxtail, herbicidal effect (evaluation scale 0-5) (water foxtail [8]) | N: common chickweed, herbicidal effect (evaluation scale 0-5) (common chickweed [9]) | L: common lambsquater, herbicidal effect (evaluation scale 0-5) (common lambsquater [10]) | E: giant foxtail, herbicidal effect (evaluation scale 0-5) (giant foxtail [11]) | I: velvetleaf, herbicidal effect (velvetleaf [12]) | A: barnyardgrass, herbicidal effect (barnyardgrass [13]) | K: redroot pigweed, herbicidal effect (redroot pigweed [14]) | J: common ragweed, herbicidal effect (common ragweed [15]) | H: Italian ryegrass, herbicidal effect (Italian ryegrass [16]) | O: beadstraw, herbicidal effect (beadstraw) | M: posumbu knotweed, herbicidal effect (posumbu knotweed [17]) | D: large crabgrass, herbicidal effect (large crabgrass [18]) | G: water foxtail, herbicidal effect (water foxtail [19]) | other results
1 | CCOC(=O)N(c1ccccc1CN1COC(C)(C(F)(F)F)CC1=O)S(=O)(=O)C(F)(F)F (stereo not drawn) [II-49] | 0 (mortality of less than 5% (almost ineffective)) | 3 (mortality of at least 40% and less than 70%) | 0 (mortality of less than 5% (almost ineffective)) | 4 (mortality of at least 70% and less than 90%) | 3 (mortality of at least 40% and less than 70%) | 4 (mortality of at least 70% and less than 90%) | 3 (mortality of at least 40% and less than 70%) | 5 (mortality of 90% or above (nearly complete death)) | 4 (mortality of at least 70% and less than 90%) | 2 (mortality of at least 20% and less than 40%) | 3 (mortality of at least 40% and less than 70%) | 0 (mortality of less than 5% (almost ineffective)) | 4 (mortality of at least 70% and less than 90%) | 0 (mortality of less than 5% (almost ineffective)) | 3 (mortality of at least 40% and less than 70%) | 0 (mortality of less than 5% (almost ineffective)) | 4 (mortality of at least 70% and less than 90%) | 3 (mortality of at least 40% and less than 70%) | 0 (mortality of less than 5% (almost ineffective)) | 3 (mortality of at least 40% and less than 70%) | N: common chickweed, herbicidal effect (common chickweed [20]): 3 (mortality of at least 40% and less than 70%); L: common lambsquater, herbicidal effect (common lambsquater [21]): 3 (mortality of at least 40% and less than 70%); E: giant foxtail, herbicidal effect (giant foxtail [22]): 3 (mortality of at least 40% and less than 70%); A: barnyardgrass, herbicidal effect (evaluation scale 0-5) (barnyardgrass [23]): 5 (mortality of 90% or above (nearly complete death)); C: ducksalad, herbicidal effect (evaluation scale 0-5) (ducksalad [24]): 5 (mortality of 90% or above (nearly complete death)); B: bulrush, herbicidal effect (evaluation scale 0-5) (bulrush [25]): 5 (mortality of 90% or above (nearly complete death)); A: barnyardgrass, herbicidal effect (evaluation scale 0-5) (barnyardgrass [26]): 5 (mortality of 90% or above (nearly complete death)); C: ducksalad, herbicidal effect (evaluation scale 0-5) (ducksalad [27]): 5 (mortality of 90% or above (nearly complete death)); B: bulrush, herbicidal effect (evaluation scale 0-5) (bulrush [28]): 5 (mortality of 90% or above (nearly complete death)); a: transplanted rice, effect on crop (evaluation scale 0-5) (transplanted rice): 0 (mortality of less than 5% (almost ineffective))
2 | CCOC(=O)N(c1ccccc1CN1COC(C)(C)C(Br)C1=O)S(=O)(=O)C(F)(F)F (stereo not drawn) [II-39, 5-bromo-6,6-dimethyl-3-[2-(N-ethoxylcarbonyl-N-trifluoromethanesulfonyl)aminobenzyl]-1,3-oxazinan-4-one] | 5 (mortality of 90% or above (nearly complete death)) | 5 (mortality of 90% or above (nearly complete death)) | 1 (mortality of at least 5% and less than 20%) | 4 (mortality of at least 70% and less than 90%) | 5 (mortality of 90% or above (nearly complete death)) | 5 (mortality of 90% or above (nearly complete death)) | 5 (mortality of 90% or above (nearly complete death)) | 5 (mortality of 90% or above (nearly complete death)) | 5 (mortality of 90% or above (nearly complete death)) | 5 (mortality of 90% or above (nearly complete death)) | 5 (mortality of 90% or above (nearly complete death)) | 5 (mortality of 90% or above (nearly complete death)) | 5 (mortality of 90% or above (nearly complete death)) | 4 (mortality of at least 70% and less than 90%) | 5 (mortality of 90% or above (nearly complete death)) | 3 (mortality of at least 40% and less than 70%) | 4 (mortality of at least 70% and less than 90%) | 3 (mortality of at least 40% and less than 70%) | 4 (mortality of at least 70% and less than 90%) | 5 (mortality of 90% or above (nearly complete death)) | N: common chickweed, herbicidal effect (common chickweed [20]): 4 (mortality of at least 70% and less than 90%); L: common lambsquater, herbicidal effect (common lambsquater [21]): 3 (mortality of at least 40% and less than 70%); E: giant foxtail, herbicidal effect (giant foxtail [22]): 5 (mortality of 90% or above (nearly complete death)); A: barnyardgrass, herbicidal effect (evaluation scale 0-5) (barnyardgrass [23]): 5 (mortality of 90% or above (nearly complete death)); C: ducksalad, herbicidal effect (evaluation scale 0-5) (ducksalad [24]): 5 (mortality of 90% or above (nearly complete death)); B: bulrush, herbicidal effect (evaluation scale 0-5) (bulrush [25]): 5 (mortality of 90% or above (nearly complete death)); A: barnyardgrass, herbicidal effect (evaluation scale 0-5) (barnyardgrass [26]): 5 (mortality of 90% or above (nearly complete death)); C: ducksalad, herbicidal effect (evaluation scale 0-5) (ducksalad [27]): 5 (mortality of 90% or above (nearly complete death)); B: bulrush, herbicidal effect (evaluation scale 0-5) (bulrush [28]): 5 (mortality of 90% or above (nearly complete death)); a: transplanted rice, effect on crop (evaluation scale 0-5) (transplanted rice): 0 (mortality of less than 5% (almost ineffective))
